Here are results for three molecules from publication PMC11024869, “The activity of antimicrobial peptoids against multidrug-resistant ocular pathogens” (Contact lens & anterior eye : the journal of the British …, 2024).

For one data set, the system named is streptococci. The experiment in a line: MIC micro broth dilution, summary over streptococci. Format: cell-based. Background: Dilution methods test growth across graded concentrations, often in twofold steps.
The subject of the next data set is S. aureus strains. Format: cell-based, Staphylococcus aureus. The conditions noted are these: summary over five S. aureus strains in text.
The subject of data set [1] is human corneal epithelial cells. In words: Cytotoxicity (MTT) to corneal epithelial cells. It is filed as cell-based. Here is the method:
Cytotoxicity to corneal epithelial cells was assessed for peptoids TM1, TM5 and TM9 using previously published methods and FDA guidelines. These peptides represent structurally diverse types (Table 2) and had different abilities to cause hemolysis of red blood cells (Fig. 1 and Table 3). Corneal cells were seeded on 96 well plate (GreinerBio One, Frickenhauser, Germany) incubated in 5 % CO2 at 37°C and grown to 80 % confluence in Dulbecco’s modified Eagle’s medium (DMEM) (Sigma-Aldrich, Irvine, UK). They were then exposed to twofold dilutions of each peptoid at concentrations ranging from 500 to 1.95 μg mL^−1 for 24 h at 37°C. An MTT (3-(4,5-dimethylthiazol-2yl)-2,5-diphenyltetrazolium bromide; Sigma-Aldrich) working solution of 0.5 mg mL^−1 was dissolved in DMEM, 100–200 μL was dispensed into each well and incubated for 4 h at 37°C. Following incubation, MTT was replaced by dimethyl sulfoxide (DMSO, Sigma Aldrich) to dissolve the formazan crystals formed by viable cells. Absorbance of this solution was measured at OD570nm. The absorbance is directly proportional to the number of viable cells. The normalized absorbance was calculated to determine number of viable cells using the following formula: %Cytotoxicity=(Absorbance of experiment well)−mean(absorbance of control well)/mean(Absorbance of positive control well)⋆100
Data are also presented as the concentration of peptoids that caused 10 % or 50 % cytotoxicity to human corneal epithelial cells.
The geometric mean is the nth root of the multiplied numbers, where n is the total number of data values. A similar formula was used to calculate the selectivity ratio, but by using the concentration of peptoid that caused 10 % hemolysis.

The next data set concerns the target T1, Trypsin (Bos taurus, UniProt P00760).
T1 sequence (P00760 24-246): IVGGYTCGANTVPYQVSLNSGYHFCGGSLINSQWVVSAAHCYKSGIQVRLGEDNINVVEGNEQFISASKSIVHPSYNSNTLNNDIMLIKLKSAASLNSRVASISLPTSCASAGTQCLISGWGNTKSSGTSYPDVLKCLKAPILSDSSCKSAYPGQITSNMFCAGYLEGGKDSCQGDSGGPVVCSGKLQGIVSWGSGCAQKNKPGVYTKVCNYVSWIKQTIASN
Here is the method:
(§1) Melimine was used as positive control as it is a cationic antimicrobial peptide that can be hydrolysed by proteases. The Expasy peptide cutter module (https://web.expasy.org/peptide_cutter/) was accessed to predict which proteases might digest melimine. The susceptibility of the antimicrobial compounds to digestion by two proteases expected to digest melimine, Proteinase K (120 unit mL^−1 in 20 mM Tris HCl, pH 7.4; New England Bio Labs, Australia) and Trypsin (10,350 BAFE units/mg in 50 mM borate buffer, pH 8.5; Thermo Scientific products, Australia), was tested. The peptoids and melimine were incubated with each protease at the ratio (w/w) of 1:100 in PBS (pH 7.4) for 24 h at 37 °C. After incubation, the peptoid/melimine + protease solutions were tested for their activity against P. aeruginosa 216 which was grown overnight in TSB at 37 °C. Bacterial cells were washed three times in PBS and then resuspended in MHB OD660nm of 0.1 (equal to 1x10^8 CFU mL^−1. The bacterial suspension was then diluted in MHB to a final working concentration of 5x10^6 cells mL^−1. The diluted bacterial suspension was subsequently added to the wells containing the peptoids/melimine + protease solution and incubated for 24 h at 37 °C. Peptoids/melimine solutions alone (no proteases) were used as a positive control, while protease solutions without the peptoids/melimine were used as a negative control. Post incubation, to inhibit the activity of the proteases, the bacterial suspensions were heated at 55 °C for 10 min in a water bath. After the heating step, the absorbance of the suspensions was measured at OD660nm.

A further data set deals with Proteinase K (Parengyodontium album, UniProt P06873). The procedure:
as §1

For the next data set, the system named is P aeruginosa 216. The procedure: as §1
Where [2] appears, read: incubated with protease at ratio (w/w) 1:100 in PBS pH 7.4, 24 h 37 °C, then P aeruginosa 216 in MHB 24 h 37 °C, OD660nm.

Read-outs that look alike come from different tables or passages of the source. Non-standard residues stand in square brackets, D forms with d. Residues, ends and D or L forms follow the SMILES beside them. Nspe(4-Br) = C[C@H](NCC(=O)O)c1ccc(Br)cc1; Nspe = C[C@H](NCC(=O)O)c1ccccc1; NDecylGly = CCCCCCCCCCNCC(=O)O; Nlys = NCCCCNCC(=O)O

Chain of Proteinase K (P06873 106-384): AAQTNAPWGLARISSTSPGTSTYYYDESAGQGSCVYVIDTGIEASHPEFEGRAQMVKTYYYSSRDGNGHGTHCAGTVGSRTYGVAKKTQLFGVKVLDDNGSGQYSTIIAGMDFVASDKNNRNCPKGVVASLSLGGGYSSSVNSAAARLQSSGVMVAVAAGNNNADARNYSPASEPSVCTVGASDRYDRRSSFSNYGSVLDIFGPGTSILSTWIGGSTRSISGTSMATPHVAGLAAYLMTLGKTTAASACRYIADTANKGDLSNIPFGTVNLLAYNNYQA
Text for S. aureus strains: (§2) The S. pneumoniae strains used were SP04, SP06 and SP07 [46] and Streptococcus gallolyticus SV06 (all isolated from eyes of contact lens wearers during adverse events); P. aeruginosa PAO1 (which was originally isolated from a wound, and is an invasive strain containing the gene exoS) as well as isolates from microbial keratitis, PA 235 (invasive strain containing exoS), PA216 (a cytotoxic strain containing exoU), PA219 (cytotoxic strain containing exoU), PA 233 (cytotoxic strain containing exoU), with various susceptibilities to antibiotics were also used [14]. C. albicans ATCC 10231, a yeast, isolated from case of a human bronchomycosis, was also evaluated.
(§3) The peptoids’ minimum inhibitory and bactericidal concentrations (MIC and MBC) were determined using micro broth dilution methods as previously described with slight modifications, [26, 39, 49, 50], and without using acetic acid and bovine serum albumin [39]. Briefly, bacteria or yeast were suspended in Muller Hinton broth (MHB, Oxoid, Thermo Fisher Scientific, Thebarton, SA, Australia) at 0.1 OD660nm, which was equivalent to 1x10^8 colony forming units (CFU) mL^−1. This suspension was further diluted to achieve 5x10^6 CFU mL^−1. […] Post incubation, the number of CFUs on the agar plates was counted.
Text for all strains: as §2, §3
Text for streptococci: as §2, §3

Turning to `C[C@@H](c1ccccc1)N(CC(N)=O)C(=O)CN(C(=O)CN(CCCCN)C(=O)CN(C(=O)CN(C(=O)CN(CCCCN)C(=O)CN(C(=O)CN(C(=O)CN(CCCCN)C(=O)CN(C(=O)CN(C(=O)CNCCCCN)[C@@H](C)c1ccccc1)[C@@H](C)c1ccccc1)[C@@H](C)c1ccccc1)[C@@H](C)c1ccccc1)[C@@H](C)c1ccccc1)[C@@H](C)c1ccccc1)[C@@H](C)c1ccccc1` [TM1] (H-[Nlys][Nspe][Nspe][Nlys][Nspe][Nspe][Nlys][Nspe][Nspe][Nlys][Nspe][Nspe]-NH2), the “MIC against other streptococci” value in the data set on streptococci was at most 8.6 µM. Also, the “MIC among S. aureus” value in the data set on S. aureus strains is at most 9.4 µM. In addition, the “HCE CC10” value in data set [1] (concentration causing 10 % cytotoxicity to human corneal epithelial cells, MTT, 24 h 37°C) stood at 1 µM. Moreover, the “HCE CC50” value in data set [1] (concentration causing 50 % cytotoxicity to human corneal epithelial cells, MTT, 24 h 37°C) was 10 µM. Moreover, in data set [1] (result in words), the “cytotoxicity to human corneal epithelial cells relative to MIC” value was “cytotoxic to human corneal epithelial cells at or below their MICs”. Moreover, the “SR HCE (ratio CC10 to geometric mean MIC)” value in data set [1] (selectivity ratio) turned out to be 0.3. In data set [1] (therapeutic index), the “TI HCE (ratio CC50 to geometric mean MIC)” value worked out at 3.
Consider `CCCCCCCCCCNCC(=O)N(CCCCN)CC(=O)N(CC(=O)N(CC(=O)N(CCCCN)CC(=O)N(CC(=O)N(CC(=O)N(CCCCN)CC(N)=O)[C@@H](C)c1ccccc1)[C@@H](C)c1ccccc1)[C@@H](C)c1ccccc1)[C@@H](C)c1ccccc1` [TM18] (H-[NDecylGly][Nlys][Nspe][Nspe][Nlys][Nspe][Nspe][Nlys]-NH2), for which, on Trypsin (setting [2]), the “MIC after Trypsin” value was 15 (12) μg mL^−1. In addition, at Proteinase K (setting [2]), the “MIC after Proteinase K” value is recorded as 15 (12) μg mL^−1. In addition, the “MIC, No protease” value against P aeruginosa 216 (P aeruginosa 216 in MHB, 24 h 37 °C, OD660nm, compound alone) is given as 15 (12) μg mL^−1.
For `C[C@@H](c1ccc(Br)cc1)N(CC(=O)N(CCCCN)CC(=O)N(CC(=O)N(CC(=O)N(CCCCN)CC(N)=O)[C@@H](C)c1ccc(Br)cc1)[C@@H](C)c1ccc(Br)cc1)C(=O)CN(C(=O)CNCCCCN)[C@@H](C)c1ccc(Br)cc1` [TM14] (H-[Nlys][Nspe(4-Br)][Nspe(4-Br)][Nlys][Nspe(4-Br)][Nspe(4-Br)][Nlys]-NH2), the “MIC after Trypsin” value at Trypsin (pH 7.4) is recorded as 7.8 (5.8) μg mL^−1. Besides, the “MIC after Proteinase K” value at Proteinase K (pH 7.4) was 7.8 (5.8) μg mL^−1. For the same molecule, the “MIC, No protease” value against P aeruginosa 216 (216, 24 h) is given as 7.8 (5.8) μg mL^−1. Moreover, in the data set on all strains, the “MICs against all strains” value is at most 12.7 µM.
